“Also recorded” adds a separate entry of the source. Like-named read-outs stand apart in the source and are kept apart here.
Key:
zebrafish [1] = test: Developmental toxicity (DevTox) assay; format: in vivo, Danio rerio; settings: for DevTox assay phenotype: Table 5 summary, this study (some rows also list literature); for EC50: Hill fit
Procedure: (§1) At 0 dpf, zebrafish embryos were bleached as previously described ([Tal et al. 2017]). A single embryo at the dome-to-epiboly stages ([Kimmel et al. 1995]) was placed into each individual well of a 96-well plate containing a 40-μm nylon mesh filter (Millipore, Catalog No. MANMN4010) with 400μL of 10% Hanks’ balanced salt solution (HBSS) per well. Filter inserts containing zebrafish embryos were transferred to 96-well culture trays (Millipore, Catalog No. MAMCS9610) containing 250μL of 10% HBSS ([Westerfield 2007]) and 1μL of 250× working solutions per well. A final concentration of 0.4% DMSO was used for all exposure groups and as a vehicle control. In the case of GenX Free Acid in Study 2 (Figure 1), DI water was used as a vehicle control. Daily, from 1–5 dpf, plates underwent 100% media changes to refresh chemical dosing solutions by blotting (Brandel; Catalog No. FPXLR-196) and transferring mesh inserts containing zebrafish to new bottom plates (Millipore; Catalog No. MAMCS9610). To minimize evaporation, plates were sealed (Biorad; Catalog No. MSA5001) and wrapped with parafilm. Plates were maintained on a 14 h:10 h light cycle at 26.0°C and scored daily for death, malformations, hatching, and swim bladder inflation. At 6 dpf, plates were evaluated by two independent observers and DevTox or DNT assays were performed or media and tissue were collected for analytical chemistry analyses as described below.
In Study 1 (Figure 1), zebrafish were exposed, as described in the “Chemical Exposures” section, to 0.04, 0.1, 0.4, 1.1, 3.1, 9.3, 27.2, or 80.0μM PFOS, PFOA, PFHxS, PFHxA, or ADONA, or 0.4% DMSO. Six 96-well plates were tested with a single chemical concentration included on each microtiter plate. Subsequently, as part of Study 1, zebrafish were exposed to 0.04, 0.1, 0.4, 1.1, 3.1, 9.3, 27.2, or 80.0μM PFESA1, or 0.4% DMSO. In Study 2, GenX Free Acid diluted in DI water was tested by exposing zebrafish to 0.04, 0.1, 0.4, 1.1, 3.1, 9.3, 27.2, or 80.0μM of the compound or DI water. […] Zebrafish were exposed to 1.7, 3.1, 5.5, 9.8, 17.6, 31.4, 56.0, or 100.0μM of PFBS, PFHxS, PFHpS, or PFOS or 0.4% DMSO. Subsequently, zebrafish were exposed to 1.7, 3.1, 5.5, 9.8, 17.6, 31.4, 56.0, or 100.0μM PFPeS, or 0.4% DMSO. Chlorpyrifos was used as positive control for malformations ( 8.0μM ) and lethality ( 80.0μM ) ([Padilla et al. 2012]; [Tal et al. 2017]). To conduct DevTox assay assessments, at 6 dpf, two independent observers evaluated zebrafish larvae for survival, hatching, swim bladder inflation, and malformations, including curved body axis, shortened trunk, pericardial edema, yolk sac edema, necrotic yolk sac, pectoral fin abnormalities and head/jaw abnormalities. Directly after assessments, data were reviewed and, in the case of discrepancies, consensus calls were reached. Toxicity values were assigned to descriptive data (i.e., normal=0 , abnormal=20 , severely abnormal=50 , and dead=100 ), modified from a previously described approach ([Padilla et al. 2012]). Briefly, animals with a single malformation were scored as abnormal, whereas animals with ≥2 malformations were scored as severely abnormal.
For the DevTox assay, a Kruskal-Wallace nonparametric one-way analysis of variance (ANOVA) with a Dunn’s multiple comparison test was used to detect differences between exposure groups (* p<0.05 , ** p<0.0001 ) and LOEC values were determined. If a test for linear trend was significant ( p<0.05 ), with developmental toxicity observed at the highest concentration tested, nonlinear regression was performed with a Hill slope curve fitting for half maximal effective concentration ( EC50 ) value determinations.

zebrafish [2] = test: Developmental neurotoxicity (DNT) assay, light/dark locomotor behavior test; format: in vivo, Danio rerio; settings: for DNT assay phenotype: Table 5 summary, this study (some rows also list literature); for Concentration causing hyperactivity in D1 period: dark 1; for Concentration causing hyperactivity in D1 period / Concentration causing hyperactivity in D2 period / Concentration causing hyperactivity in L1 period / Concentration causing hyperactivity in L2 period: vs 0.4% DMSO; for Concentration causing hyperactivity in D2 period: dark 2; for Concentration causing hyperactivity in L1 period: light 1; for Concentration causing hyperactivity in L2 period: light 2
Procedure: as §1
To increase the likelihood of observing behavioral effects in morphologically normal larvae, the highest concentration evaluated in the DNT assay was the lowest observed effect concentration (LOEC) determined in DevTox assay. Zebrafish were exposed in parallel to 4.4, 7.9, 14.0, 25.1, 44.8, or 80.0μM PFOA, PFHxS, PFHxA, or ADONA or 0.2, 0.3, 0.6, 1.0, 1.8, or 3.1μM PFOS or 0.4% DMSO. Subsequently, as part of Study 1, exposure to 4.4, 7.9, 14.0, 25.1, 44.8, or 80.0μM PFESA1, or 0.4% DMSO was evaluated. In Study 2, zebrafish were exposed to 4.4, 7.9, 14.0, 25.1, 44.8, or 80.0μM GenX Free Acid, or DI water. In Study 3, to increase the likelihood of observing malformations with shorter-chain compounds at multiple test concentrations, the highest concentration evaluated was 100.0μM . Zebrafish were exposed to 5.5, 9.8, 17.6, 31.4, 56.0, or 100.0μM PFBS; 3.1, 5.5, 9.8, 17.6, 31.4, or 56.0μM PFHxS; 1.7, 3.1, 5.5, 9.8, 17.6, or 31.4μM PFHpS; or 0.5, 1.0, 1.7, 3.1, 5.5, or 9.8μM PFOS, or 0.4% DMSO. Subsequently, as part of Study 3, zebrafish were exposed to 3.1, 5.5, 9.8, 17.6, 31.4, or 56.0μM PFPeS, or 0.4% DMSO. Chemical exposures and assessments were performed daily, as described above. To evaluate swimming behavior in a light/dark behavior test, microtiter plates were placed in a dark, temperature-controlled behavior testing room set to 26.0°C for at least 2 h prior to testing. At the time of testing, microtiter plates were placed on a Noldus tracking apparatus. Locomotor activity was recorded (30 frames/s) for a total of 60 min consisting of a 20-min dark acclimation period (0 lux) that was not analyzed followed by a 40-min testing period consisting of a 20-min light period (5.0 lux) and 20-min dark period (0 lux). Videos were analyzed using Ethovision software (version 3.1; Noldus Information Technology) as previously described ([Jarema et al. 2015]). Locomotor activity was collected for each individual fish for each 2-min period (minimum distance moved, set to 0.135cm ). Thus, for a 40-min test, 20 data points were collected per larvae. […] Four additional criteria for inclusion of individual larvae were applied. One, all larvae that were identified as abnormal, severely abnormal, or dead were excluded. Two, larvae with uninflated swim bladders were removed from analyses. Three, individual larvae that moved <2cm in either […] dark period were removed.

zebrafish [3] = settings: Table 5 summary; zebrafish; ref Hagenaars et al. 2011; Ulhaq et al. 2013a; cited from earlier work
zebrafish [4] = settings: Table 5 summary, ref Ulhaq et al. 2013b; cited from earlier work
[5] = Study 3, 1.7–100.0 μM daily 0–5 dpf, scored 6 dpf, 0.4% DMSO
[6] = Danio rerio, Study 3, 1.7–100.0 μM daily 0–5 dpf, scored 6 dpf, 0.4% DMSO
[7] = Study 3, daily 0–5 dpf, tested 6 dpf

SMILES: O=S(=O)(O)C(F)(F)C(F)(F)C(F)(F)C(F)(F)F [PFBS, Perfluorobutanesulfonic acid]
- Developmental toxicity outcome (zebrafish [1]; [5]): negative
- DevTox assay phenotype (zebrafish [1]): Negative
- Developmental neurotoxicity / locomotor activity outcome (zebrafish [2]; Study 3, daily 0–5 dpf, tested 6 dpf, 0.4% DMSO): did not result in significant locomotor effects; also recorded: negative
- DNT assay phenotype (zebrafish [2]): Negative^a
- DevTox assay phenotype (zebrafish [3]): Positive
- DNT assay phenotype (zebrafish [4]): Hyperactivity

SMILES: O=S(=O)(O)C(F)(F)C(F)(F)C(F)(F)C(F)(F)C(F)(F)C(F)(F)C(F)(F)F [PFHpS, Perfluoroheptanesulfonic acid]
- EC50 (zebrafish [1]; [6]): 168 µM
- DevTox assay phenotype (zebrafish [1]): Positive^a
- LOEC for developmental toxicity (zebrafish [1]; sulfonic acid PFAS study, 1.7–100.0 μM daily 0–5 dpf, scored 6 dpf, 0.4% DMSO): 31.4 µM
- Concentration causing hyperactivity in D1 period (zebrafish [2]; [7]): 3.1 to 5.5 µM
- Concentration causing hyperactivity in D2 period (zebrafish [2]; [7]): no effect
- Concentration causing hyperactivity in L1 period (zebrafish [2]; [7]): 5.5 µM
- Concentration causing hyperactivity in L2 period (zebrafish [2]; [7]): 3.1 to 5.5 µM
- DNT assay phenotype (zebrafish [2]): Hyperactivity^a

SMILES: O=S(=O)(O)C(F)(F)C(F)(F)C(F)(F)C(F)(F)C(F)(F)F [PFPeS, Perfluoropentanesulfonic acid]
- EC50 (zebrafish [1]; [6]): 48.8 µM
- EC50 (zebrafish [1]; [5]): 48.8 µM
- DevTox assay phenotype (zebrafish [1]): Positive^a
- Concentration causing hyperactivity in D1 period (zebrafish [2]; [7]): no effect
- Concentration causing hyperactivity in D2 period (zebrafish [2]; [7]): no effect
- Concentration causing hyperactivity in L1 period (zebrafish [2]; [7]): 5.5 µM
- Concentration causing hyperactivity in L2 period (zebrafish [2]; [7]): 3.1 to 5.5 µM
- DNT assay phenotype (zebrafish [2]): Hyperactivity^a

— paper PMC7228129, “Evaluation of Developmental Toxicity, Developmental Neurotoxicity, and Tissue Dose in Zebrafish Exposed to GenX and Other PFAS” (Environmental Health Perspectives, 2020)
